Measurements: US10485794B2, “Treatment method by combined use of MDM2 inhibitor and BTK inhibitor” (DAIICHI SANKYO COMPANY, LIMITED, priority 2015, dated 2019)

Tests used:
[1] = test system: ABC-type DLBCL cell line TMD-8 cells; experiment: In vivo effect on subcutaneously transplanted TMD-8 tumor in mice (Test Example 1); parameters: species or system NOD-SCID mouse; conditions: for TGI (%): 29 days after tumor inoculation
Protocol: ABC-type DLBCL cell line TMD-8 cells were suspended to 1×10^8 cells/mL using phosphate-buffered saline. 0.1 mL of the prepared cell suspension was subcutaneously transplanted to each NOD-SCID mouse (female, 6 weeks old). […] The major axis (mm) and minor axis (mm) of tumor were measured over time using an electronic digital caliper. […] Also, the body weights were measured over time using an automatic balance for small animals, and body weight change % was calculated according to calculation formula (5) shown below to study the influence of drug administration on the body weights. In addition, the results of the last body weight measurement were used in dose calculation. […] A: Average tumor volume of the compound-administered group on the date of assessment (*) B: Average tumor volume of the untreated control group on the date of assessment (*) *: The tumor volume was calculated according to ½×[Major axis of tumor]×[Minor axis of tumor]×[Minor axis of tumor].

[2] = Body weight change of TMD-8 tumor-bearing mice (Test Example 1); format: in vivo, NOD-SCID mouse
Protocol: ABC-type DLBCL cell line TMD-8 cells were suspended to 1×10^8 cells/mL using phosphate-buffered saline. 0.1 mL of the prepared cell suspension was subcutaneously transplanted to each NOD-SCID mouse (female, 6 weeks old). […] For a combined use group, 25 mg/kg or 50 mg/kg Compound A and 100 mg/kg or 200 mg/kg ibrutinib were orally administered sequentially by forced administration. […] The major axis (mm) and minor axis (mm) of tumor were measured over time using an electronic digital caliper. […] Also, the body weights were measured over time using an automatic balance for small animals, and body weight change % was calculated according to calculation formula (5) shown below to study the influence of drug administration on the body weights. In addition, the results of the last body weight measurement were used in dose calculation. […] *: The tumor volume was calculated according to ½×[Major axis of tumor]×[Minor axis of tumor]×[Minor axis of tumor]. […] BWn: Body weight on day n BWs: Body weight on the start day of administration

[3] = Compound A 25 mg/kg oral, day 18 after tumor inoculation (first administration)
[4] = Compound A 25 mg/kg oral, day 20 after tumor inoculation
[5] = Compound A 25 mg/kg oral, day 22 after tumor inoculation
[6] = Compound A 25 mg/kg oral, day 25 after tumor inoculation
[7] = Compound A 25 mg/kg oral, day 27 after tumor inoculation
[8] = Compound A 25 mg/kg oral, day 29 after tumor inoculation
[9] = Compound A 50 mg/kg oral, day 18 after tumor inoculation (first administration)
[10] = Compound A 50 mg/kg oral, day 20 after tumor inoculation
[11] = Compound A 50 mg/kg oral, day 22 after tumor inoculation
[12] = Compound A 50 mg/kg oral, day 25 after tumor inoculation
[13] = Compound A 50 mg/kg oral, day 27 after tumor inoculation
[14] = Compound A 50 mg/kg oral, day 29 after tumor inoculation
[15] = Ibrutinib 100 mg/kg oral, day 18 after tumor inoculation (first administration)
[16] = Ibrutinib 100 mg/kg oral, day 20 after tumor inoculation
[17] = Ibrutinib 100 mg/kg oral, day 22 after tumor inoculation
[18] = Ibrutinib 100 mg/kg oral, day 25 after tumor inoculation
[19] = Ibrutinib 100 mg/kg oral, day 27 after tumor inoculation
[20] = Ibrutinib 100 mg/kg oral, day 29 after tumor inoculation
[21] = Ibrutinib 200 mg/kg oral, day 18 after tumor inoculation (first administration)
[22] = Ibrutinib 200 mg/kg oral, day 20 after tumor inoculation
[23] = Ibrutinib 200 mg/kg oral, day 22 after tumor inoculation
[24] = Ibrutinib 200 mg/kg oral, day 25 after tumor inoculation
[25] = Ibrutinib 200 mg/kg oral, day 27 after tumor inoculation
[26] = Ibrutinib 200 mg/kg oral, day 29 after tumor inoculation

SMILES: CC1(C)CCC2(CC1)N[C@@H](C(=O)N[C@@H]1CC[C@@H](C(N)=O)OC1)[C@H](c1ccnc(Cl)c1F)[C@]21C(=O)Nc2cc(Cl)ccc21.Cc1ccc(S(=O)(=O)O)cc1 [Compound A, (3′R,4′S,5′R)—N-[(3R,6S)-6-carbamoyltetrahydro-2H-pyran-3-yl]-6″-chloro-4′-(2-chloro-3-fluoropyridin-4-yl)-4,4-dimethyl-2″-oxo-1″,2″-dihydrodispiro[cyclohexane-1,2′-pyrrolidine-3′,3″-indole]-5′-carboxamide p-toluenesulfonate]
- TGI (%) ([1]; Compound A 25 mg/kg oral): 45%
- Estimated tumor volume, average [1, 3]: 117 mm^3
- Estimated tumor volume, average [1, 4]: 135 mm^3
- Estimated tumor volume, average [1, 5]: 156 mm^3
- Estimated tumor volume, average [1, 6]: 201 mm^3
- Estimated tumor volume, average [1, 7]: 212 mm^3
- Estimated tumor volume, average [1, 8]: 282 mm^3
- TGI (%) ([1]; Compound A 50 mg/kg oral): 58%
- Estimated tumor volume, average [1, 9]: 115 mm^3
- Estimated tumor volume, average [1, 10]: 118 mm^3
- Estimated tumor volume, average [1, 11]: 108 mm^3
- Estimated tumor volume, average [1, 12]: 143 mm^3
- Estimated tumor volume, average [1, 13]: 162 mm^3
- Estimated tumor volume, average [1, 14]: 216 mm^3
- Body weight change (%), average [2, 3]: 0.0%
- Body weight change (%), average [2, 4]: 2.1%
- Body weight change (%), average [2, 5]: 1.8%
- Body weight change (%), average [2, 6]: 1.6%
- Body weight change (%), average [2, 7]: 1.3%
- Body weight change (%), average [2, 8]: 0.1%
- Body weight change (%), average [2, 9]: 0.0%
- Body weight change (%), average [2, 10]: −0.8%
- Body weight change (%), average [2, 11]: −1.7%
- Body weight change (%), average [2, 12]: −2.7%
- Body weight change (%), average [2, 13]: −1.0%
- Body weight change (%), average [2, 14]: −1.7%

SMILES: C=CC(=O)N1CCC[C@@H](n2nc(-c3ccc(Oc4ccccc4)cc3)c3c(N)ncnc32)C1 [Ibrutinib, (R)-1-(3-(4-amino-3-(4-phenoxyphenyl)-1H-pyrazolo[3,4-d]pyrimidin-1-yl)piperidin-1-yl)prop-2-en-1-one]
- TGI (%) ([1]; Ibrutinib 100 mg/kg oral): 58%
- Estimated tumor volume, average [1, 15]: 115 mm^3
- Estimated tumor volume, average [1, 16]: 112 mm^3
- Estimated tumor volume, average [1, 17]: 127 mm^3
- Estimated tumor volume, average [1, 18]: 157 mm^3
- Estimated tumor volume, average [1, 19]: 185 mm^3
- Estimated tumor volume, average [1, 20]: 213 mm^3
- TGI (%) ([1]; Ibrutinib 200 mg/kg oral): 67%
- Estimated tumor volume, average [1, 21]: 119 mm^3
- Estimated tumor volume, average [1, 22]: 120 mm^3
- Estimated tumor volume, average [1, 23]: 115 mm^3
- Estimated tumor volume, average [1, 24]: 149 mm^3
- Estimated tumor volume, average [1, 25]: 153 mm^3
- Estimated tumor volume, average [1, 26]: 166 mm^3
- Body weight change (%), average [2, 15]: 0.0%
- Body weight change (%), average [2, 16]: −0.4%
- Body weight change (%), average [2, 17]: −1.1%
- Body weight change (%), average [2, 18]: −0.2%
- Body weight change (%), average [2, 19]: 0.8%
- Body weight change (%), average [2, 20]: −0.1%
- Body weight change (%), average [2, 21]: 0.0%
- Body weight change (%), average [2, 22]: −1.5%
- Body weight change (%), average [2, 23]: −1.2%
- Body weight change (%), average [2, 24]: 0.2%
- Body weight change (%), average [2, 25]: −0.4%
- Body weight change (%), average [2, 26]: −1.6%
